# Patent US8772504B2, “Substituted benzoxazole, benzimidazole, oxazolopyridine and imidazopyridine derivatives as gamma secretase modulators” (Janssen Pharmaceuticals, Inc., priority 2009, dated 2014)
# What was measured:
# Aβ42 [1] = assay: In vivo efficacy Method 1: brain soluble Aβ42 by ELISA; parameters: species or system mouse; settings: Table 4a, single oral dose, overnight fasted animals, sacrificed after 4 h, soluble fraction of brain homogenates
# Procedure, shortened: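 Overnight-fasted rodents or APP transgenic mice given a single oral dose in 20% Captisol or 20% hydroxypropyl β-cyclodextrin and sacrificed after 4 h. Right-hemisphere homogenate high-speed supernatant used: neutralized portion for Aβtotal, Oasis HLB-purified and concentrated eluate for Aβ42, both quantified by ELISA.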
# Aβ42 [2] = assay: Screening for γ-secretase-modulating activity, Method 1: Aβ42 sandwich ELISA on SKNBE2 cell media; type: cell-based; settings: SKNBE2 cells carrying APP 695 wild type
# Procedure, shortened: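 SKNBE2 cells expressing wild-type APP695 were treated with compound for 18 h in Ultraculture/1% glutamine. Secreted Aβ42 was quantified by sandwich ELISA (C-terminal capture, biotinylated 3D6, TMB, 450 nm), with WST-1 used as a toxicity check. IC50 was derived from 4-parameter fits of % inhibition or % of untreated control.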
# [3] = Homo sapiens, Table 3a, 18 hours, XLfit, top/bottom fixed to 100 and 0, hill slope 1
# [4] = Homo sapiens, Table 3b, non-linear regression of % of control, averaged IC50 values
# [5] = Table 3a, 18 hours, XLfit, top/bottom fixed to 100 and 0, hill slope 1
# [6] = Table 3b, non-linear regression of % of control, averaged IC50 values
SMILES,IC50 (Aβ42 [2]; [3]) [nM],IC50 (Aβ42 [2]; [4]) [nM],IC50 (Aβ42 [2]; [5]) [nM],IC50 (Aβ42 [2]; [6]) [nM],Aβ42 (% Ctrl) _Mean (Aβ42 [1]) [% Ctrl]
COc1cc(Nc2cccc3c2nc(-c2ccc(F)cc2)n3C)ccc1-n1cnc(C)c1 [Compound 1],22,21,,,57
CCn1c(CC2CC2)nc2c(Nc3ccc(-n4cnc(C)c4)c(OC)c3)cccc21 [Compound 36],,,31,28,79
COc1cc(Nc2cccc3c2nc(Oc2ccccc2)n3C)ccc1-n1cnc(C)c1 [Compound 61],,,63,59,89
Cc1ncn(-c2ccc(Nc3cccc4c3nc(-c3ccc(F)cc3)n4C(C)C)cc2)n1.Cl.Cl [Compound 73],,,96,89,87
COc1cc(Nc2cccc3c2nc(-c2ccc(F)cc2)n3C(C)C)ccc1-n1cnc(C)n1.Cl.Cl [Compound 75],,,19,19,67
Cc1ncn(-c2ccc(Nc3cccc4c3nc(-c3ccc(F)cc3)n4C(C)C)cn2)n1 [Compound 76],,,48,46,86
COc1cc(-c2nc3c(Nc4ccc(-n5cnc(C)n5)c(OC)c4)nccc3n2C)ccc1Cl [Compound 114],10,54,,,
COc1cc(Nc2nccc3c2nc(-c2ccccc2C(F)(F)F)n3C)ccc1-n1cnc(C)n1 [Compound 130],,,,69,75

# The next lines start with results.
IC50 (Aβ42 [2]; [3]) [nM],IC50 (Aβ42 [2]; [4]) [nM],IC50 (Aβ42 [2]; [5]) [nM],IC50 (Aβ42 [2]; [6]) [nM],SMILES,Aβ42 (% Ctrl) _Mean (Aβ42 [1]) [% Ctrl]
23,22,,,COc1cc(Nc2cccc3c2nc(-c2ccc(F)cc2)n3C)ccc1-n1cnc(C)n1 [Compound 4],64
22,22,,,COc1cc(Nc2nccc3c2nc(-c2ccc(F)cc2)n3C)ccc1-n1cnc(C)c1 [Compound 8],46
6,8,,,COc1nc(Nc2cccc3c2nc(-c2ccc(F)cc2)n3C)ccc1-n1cnc(C)c1 [Compound 15],31
,,12,8,Cc1cn(-c2ccc(Nc3cccc4c3nc(-c3ccc(F)cc3)n4C)cc2F)cn1 [Compound 67],71
,,129,129,COc1cc(Nc2nccc3c2nc(-c2ccc(F)cc2)n3C)ccc1-n1cnc(C)n1 [Compound 92],60
4,18,,,COc1cc(Nc2cc(C(C)C)nc3c2nc(-c2ccc(F)cc2)n3C)ccc1-n1cnc(C)n1 [Compound 110],
,,2,,COc1nc(Nc2cc(F)cc3c2nc(-c2ccc(F)cc2)n3C)ccc1-n1cnc(C)c1 [Compound 115],97
,,,32,COc1cc(Nc2nc(C)cc3c2nc(-c2ccc(F)cc2)n3C)ccc1-n1cnc(C)n1 [Compound 164],72
